What follows are compounds tested against T1, human RORγt (Homo sapiens, UniProt P51449) (assay: RORE Luciferase/RORγt transactivation assay). Details: COS-7 cells transfected with human IL-17 promoter luciferase reporter and RORγt plasmid; 20 h with compound; read-out: IC50, RORγt activity inhibition.
T1 construct: the full-length cDNA of human RORγt; expressed in transfected cells; host or cells: COS-7 (monkey kidney)
T1 sequence (P51449 1-497 isoform P51449-2): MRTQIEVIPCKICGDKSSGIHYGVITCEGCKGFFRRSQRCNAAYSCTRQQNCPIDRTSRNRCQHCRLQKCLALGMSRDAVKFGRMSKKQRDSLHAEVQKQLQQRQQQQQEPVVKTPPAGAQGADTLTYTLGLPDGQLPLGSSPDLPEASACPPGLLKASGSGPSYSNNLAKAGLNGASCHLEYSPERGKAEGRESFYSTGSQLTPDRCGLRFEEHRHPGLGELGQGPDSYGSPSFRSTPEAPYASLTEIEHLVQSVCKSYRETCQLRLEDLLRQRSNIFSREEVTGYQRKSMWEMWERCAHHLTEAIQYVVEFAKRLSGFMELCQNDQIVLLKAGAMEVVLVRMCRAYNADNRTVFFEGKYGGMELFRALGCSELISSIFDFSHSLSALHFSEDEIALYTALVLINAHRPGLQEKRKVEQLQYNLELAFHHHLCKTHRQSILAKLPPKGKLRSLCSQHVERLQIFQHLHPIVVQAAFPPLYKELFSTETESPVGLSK
Type: cell-based
Procedure: It is well known that RORγ binds to a conserved non-coding sequence (CNS) enhancer element in the IL-17 promoter.
Culture medium was changed every 2 days.
The 4.3 Kb human IL-17 promoter containing the RORγ-specific CNS enhancer element was PCR amplified from human genomic DNA and cloned into a pGL3-TKLuc2Cp reporter plasmid.
The luciferase reporter plasmid and the RORγt overexpression plasmid were transfected into COS-7 cell line using 4 μLJetPEI™/μg of DNA. Briefly, 150 ng of DNA (ration ½ between RORE-Tk Luc2Cp and cDNA RORγt or the empty vector for the negative control) was served to transfect adherent COS-7 cells in a […] culture flask, in complete medium (see cos-7 cell line culture).
Cells were then detached (using trypsin) and washed by centrifugation at 300 g for 10 minutes. Cell pellet was resuspended in serum free/phenol red free DMEM and seeded in 384 well plates at a density of 10000 cells/well and then incubated for 4 h at 37° C.
Compounds were dissolved in 100% DMSO to obtain 10 mM stock solutions. For each compound, test concentrations were diluted in serum free/phenol red free DMEM using the Genesis Freedom 200™ (TECAN) and added to the cells to obtain a 0.3% DMSO final concentration (in a final volume of 40 μL per well).
The luciferase activity was then measured with 40 μL/well steady-Glo Luciferase assay system (Promega, Madison, Wis.) and after incubation at room temperature for 30 minutes. The luminescence was estimated using the Ultra384 reader (TECAN). Data were collected and analyzed using GraphPad Prism software (GraphPad Software V5.02, San Diego Calif. USA). IC50 in μM and Emax in % were reported for each compound.
Cc1ccc(C(NC(=O)Cc2ccc3c(c2)C(O)CC3)c2ccc(C)o2)c(N2CCCCC2)c1 (stereo not drawn) [Cpd. 85, 2-(3-hydroxy-2,3-dihydro-1H-inden-5-yl)-N-{[4-methyl-2-(piperidin-1-yl)phenyl](5-methylfuran-2-yl)methyl}acetamide] showed an IC50 of 10 to 100 nM.
Compound Cc1ccc(C(NC(=O)C2(c3ccc4c(c3)CCN4C(=O)C3CC3)CC2)c2ccc(C)o2)c(C)c1 (stereo not drawn) [Cpd. 95, 1-(1-cyclopropanecarbonyl-2,3-dihydro-1H-indol-5-yl)-N-[(2,4-dimethylphenyl)(5-methylfuran-2-yl)methyl]cyclopropane-1-carboxamide] has an IC50 of 10 to 100 nM.
Cc1ccc(C(NC(=O)Cc2ccc3c(ccn3CCC(=O)OC(C)(C)C)c2)c2ccc(C)o2)c(N2CCCCC2)c1 (stereo not drawn) [Cpd. 96, tert-butyl 3-{5-[({[4-methyl-2-(piperidin-1-yl)phenyl](5-methylfuran-2-yl)methyl}carbamoyl)methyl]-1H-indol-1-yl}propanoate] was tested, and the IC50 was 100 to 1000 nM.
COc1ccc(C(NC(=O)Cc2ccc3c(ccn3CCC(=O)OC(C)(C)C)c2)c2ccc(C)o2)c(N2CCCCCC2)c1 (stereo not drawn) [Cpd. 110, tert-butyl 3-{5-[({[2-(azepan-1-yl)-4-methoxyphenyl](5-methylfuran-2-yl)methyl}carbamoyl)methyl]-1H-indol-1-yl}propanoate] gave an IC50 of 100 to 1000 nM.
Cc1ccc(C(NC(=O)Cc2ccc3c(ccn3CC3CCOCC3)c2)c2ccc(C)o2)c(N2CCCCC2)c1 (stereo not drawn) [Cpd. 113, N-{[4-methyl-2-(piperidin-1-yl)phenyl](5-methylfuran-2-yl)methyl}-2-[1-(oxan-4-ylmethyl)-1H-indol-5-yl]acetamide] was tested, and the IC50 was 10 to 100 nM.
With Cc1ccc(C(NC(=O)Cc2ccc3c(c2)CCN3C(=O)C2CC2)c2ccc(C)o2)c(N2CCCCC2)c1 (stereo not drawn) [Cpd. 123, 2-(1-cyclopropanecarbonyl-2,3-dihydro-1H-indol-5-yl)-N-{[4-methyl-2-(piperidin-1-yl)phenyl](5-methylfuran-2-yl)methyl}acetamide] the IC50 was less than 10 nM.
Compound Cc1ccc(C(NC(=O)C2(c3ccc4c(c3)OCS(=O)(=O)N4)CC2)c2ccc(C)o2)c(Br)c1 (stereo not drawn) [Cpd. 131, N-[(2-bromo-4-methylphenyl)(5-methylfuran-2-yl)methyl]-1-(2,2-dioxo-1,3-dihydro-4,2,1-benzoxathiazin-6-yl)cyclopropane-1-carboxamide] has an IC50 of 10 to 100 nM.
CCN1c2ccc(C3(C(=O)NC(c4ccc(C)o4)c4ccc(C)cc4C)CC3)cc2CS1(=O)=O (stereo not drawn) [Cpd. 132, N-[(2,4-dimethylphenyl)(5-methylfuran-2-yl)methyl]-1-(1-ethyl-2,2-dioxo-1,3-dihydro-2,1-benzothiazol-5-yl)cyclopropane-1-carboxamide] gave an IC50 of 10 to 100 nM.
Work on Cc1ccc(C(NC(=O)C2(c3ccc4c(c3)CS(=O)(=O)N4C)CC2)c2ccc(C)o2)c(N(C)C)c1 (stereo not drawn) [Cpd. 133, N-{[2-(dimethylamino)-4-methylphenyl](5-methylfuran-2-yl)methyl}-1-(1-methyl-2,2-dioxo-1,3-dihydro-2,1-benzothiazol-5-yl)cyclopropane-1-carboxamide] yielded an IC50 of 10 to 100 nM.
Cc1ccc(C(NC(=O)C2(c3ccc4c(c3)OCC(=O)N4)CC2)c2ccc(Cl)o2)c(C)c1 (stereo not drawn) [Cpd. 134, N-[(5-chlorofuran-2-yl)(2,4-dimethylphenyl)methyl]-1-(3-oxo-3,4-dihydro-2H-1,4-benzoxazin-7-yl)cyclopropane-1-carboxamide] was tested, and the IC50 was less than 10 nM.
For Cc1ccc(C(NC(=O)C2(c3ccc4c(c3)OCC(=O)N4)CC2)c2ccc(C)o2)c(Br)c1 (stereo not drawn) [Cpd. 135, N-[(2-bromo-4-methylphenyl)(5-methylfuran-2-yl)methyl]-1-(3-oxo-3,4-dihydro-2H-1,4-benzoxazin-7-yl)cyclopropane-1-carboxamide], the IC50 was less than 10 nM.
Cc1ccc(C(NC(=O)C2(c3ccc4c(c3)OCC(=O)N4)CC2)c2cccc(C)n2)c(C)c1 (stereo not drawn) [Cpd. 136, N-[(2,4-dimethylphenyl)(6-methylpyridin-2-yl)methyl]-1-(3-oxo-3,4-dihydro-2H-1,4-benzoxazin-7-yl)cyclopropane-1-carboxamide] was tested, and the IC50 was 10 to 100 nM.
